Values of other authors as cited in US20150239832A1 (Neuro Pro Therapeutics, Inc., priority 2012, published 2015).

What was measured:
[1] = tested on: rat models of anxiety; settings: Krystal et al., PLoS ONE 2012
[2] = tested on: primate cortex
[3] = tested on: rats; settings: whole animal studies in rats
[4] = tested on: NKCC1 over KCC2
[5] = tested on: patients with medically intractable seizures; settings: intravenously administered, intraoperative

| Compound | effect on conditioned anxiety [1] | potency in blocking epileptiform activity (focal bicuculline or 4-AP) and stimulation-evoked afterdischarges [2] | effect on kainic acid status [3] | affinity for NKCC1 relative to KCC2 [4] | effect on interictal spiking and stimulation-evoked afterdischarges of the neocortex [5] |
| --- | --- | --- | --- | --- | --- |
| CCCCNc1cc(C(=O)O)cc(S(N)(=O)=O)c1Oc1ccccc1 [bumetanide] | significantly reduce conditioned anxiety | more potent than furosemide | more potent than furosemide | significantly greater affinity for NKCC1 over KCC2 |  |
| NS(=O)(=O)c1cc(C(=O)O)c(NCc2ccco2)cc1Cl [furosemide] | significantly reduce conditioned anxiety |  |  |  | blocked spontaneously occurring interictal spiking and stimulation-evoked afterdischarges |
